A word on the IC50: it is the concentration at which inhibition is half-maximal. For orientation: EC50 means the concentration giving half of the maximal effect. One may read the CC50 as the concentration giving 50% cytotoxicity. In general, solubility refers to the dissolved amount per volume that the medium holds. A higher solubility goes with much dissolved substance.

Data set [1] addresses Voltage-gated inwardly rectifying potassium channel KCNH2 (Homo sapiens, UniProt Q12809). The data set is described as follows: Inhibition of hERG expressed in CHO cells. Type of data set: toxicity, cell-based.
Data set [2] is described as follows: Acute toxicity in mouse assessed as drug tolerance at 2 g/kg treated for 14 days. As to conditions: in vivo, 2000 mg/kg, 336 h, time 14 day.
For data set [3], the target named is T1, Cytochrome P450 3A4 (Homo sapiens, UniProt P08684). The data set is described as follows: Inhibition of CYP3A4 (unknown origin) using midazolam as substrate. The format is ADME.
T1 sequence (P08684 whole entry): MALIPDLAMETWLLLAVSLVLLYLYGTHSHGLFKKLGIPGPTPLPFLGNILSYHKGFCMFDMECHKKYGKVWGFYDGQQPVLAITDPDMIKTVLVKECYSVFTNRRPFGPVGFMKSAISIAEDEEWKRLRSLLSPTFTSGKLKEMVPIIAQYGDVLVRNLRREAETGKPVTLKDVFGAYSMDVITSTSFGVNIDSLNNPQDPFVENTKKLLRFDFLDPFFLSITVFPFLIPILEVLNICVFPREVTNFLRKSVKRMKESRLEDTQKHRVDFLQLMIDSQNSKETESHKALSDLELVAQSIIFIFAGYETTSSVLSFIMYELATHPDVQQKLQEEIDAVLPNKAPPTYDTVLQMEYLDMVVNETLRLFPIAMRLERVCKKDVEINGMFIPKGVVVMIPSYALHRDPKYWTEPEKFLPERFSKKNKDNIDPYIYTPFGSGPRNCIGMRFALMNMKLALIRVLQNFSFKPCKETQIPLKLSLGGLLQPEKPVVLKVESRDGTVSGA
A short description of data set [4]: Acute toxicity in mouse assessed as apparent pathological damage in kidney treated for 14 days by H and E staining based analysis. As to conditions: in vivo, 336 h, time 14 day.
Data set [5] deals with Human immunodeficiency virus 1. Description: Antiviral activity against HIV-1 harboring RT L100I mutant infected in human MT4 cells assessed as protection against virus-induced cytopathic effect incubated for 5 days by MTT assay. The format is functional, organism-based. The settings on record: Human immunodeficiency virus 1, MT4, 120 h. In general terms: Protection from cytopathic effect is a common read-out in antiviral testing.

A short description of data set [6]: Cytotoxicity against human MT4 cells assessed as reduction in cell viability incubated for 5 days by MTT assay. The format is toxicity, cell-based. The settings on record: time 5 day. (In general: Formazan colour is commonly taken as a measure of viable cells.)
In data set [7] the target is T1, Cytochrome P450 3A4. The data set is described as follows: Inhibition of CYP3A4 (unknown origin) using testosterone as substrate. Type of data set: ADME.
The target of another data set is T2, Cytochrome P450 1A2 (Homo sapiens, UniProt P05177).
T2 sequence (P05177 whole entry): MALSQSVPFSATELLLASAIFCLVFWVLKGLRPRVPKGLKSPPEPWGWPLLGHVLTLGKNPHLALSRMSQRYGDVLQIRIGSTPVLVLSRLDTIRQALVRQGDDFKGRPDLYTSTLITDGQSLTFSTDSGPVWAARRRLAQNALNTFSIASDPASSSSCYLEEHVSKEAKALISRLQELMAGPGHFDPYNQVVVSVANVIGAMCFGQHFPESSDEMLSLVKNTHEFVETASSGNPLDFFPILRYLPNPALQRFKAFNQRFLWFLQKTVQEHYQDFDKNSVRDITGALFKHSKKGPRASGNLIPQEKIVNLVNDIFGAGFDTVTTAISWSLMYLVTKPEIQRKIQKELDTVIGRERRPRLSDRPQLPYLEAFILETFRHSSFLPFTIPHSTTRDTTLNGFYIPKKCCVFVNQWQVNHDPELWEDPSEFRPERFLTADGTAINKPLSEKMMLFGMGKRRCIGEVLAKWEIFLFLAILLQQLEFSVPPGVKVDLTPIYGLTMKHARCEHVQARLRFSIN
Description: Inhibition of CYP1A2 (unknown origin). Type of data set: ADME.

Data set [8] has as its target Human immunodeficiency virus type 1 reverse transcriptase (Human immunodeficiency virus 1, UniProt Q72547). The data set is described as follows: Inhibition of recombinant wild-type HIV-1 reverse transcriptase incubated for 40 mins by fluorescence based assay.
A short description of data set [9]: Acute toxicity in mouse assessed as apparent pathological damage in lung treated for 14 days by H and E staining based analysis. Type of data set: tissue-based. The settings on record: in vivo, 336 h, time 14 day.
A short description of data set [10]: Acute toxicity in mouse assessed as apparent pathological damage in liver treated for 14 days by H and E staining based analysis. Type of data set: tissue-based. As to conditions: in vivo, 336 h, time 14 day.
The nature of data set [11]: Solubility of compound in phosphate buffer at pH 7 by HPLC analysis. Type of data set: physicochemical.
Data set [12] can be described thus: Acute toxicity in mouse assessed as apparent pathological damage in brain treated for 14 days by H and E staining based analysis. The settings on record: in vivo, 336 h, time 14 day. The format is tissue-based.
Data set [13] relates to Human immunodeficiency virus 1. The data set is described as follows: Antiviral activity against HIV-1 harboring RT Y188L mutant infected in human MT4 cells assessed as protection against virus-induced cytopathic effect incubated for 5 days by MTT assay. As to conditions: Human immunodeficiency virus 1, MT4, 120 h. Type of data set: functional, organism-based.
A short description of data set [14]: Solubility of compound in phosphate buffer at pH 2 by HPLC analysis. Type of data set: physicochemical.
In data set [15] the test system is Human immunodeficiency virus 1. Description: Antiviral activity against HIV-1 harboring RT E138K mutant infected in human MT4 cells assessed as protection against virus-induced cytopathic effect incubated for 5 days by MTT assay. The format is functional, organism-based. As to conditions: Human immunodeficiency virus 1, MT4, 120 h.
A short description of data set [16]: Acute toxicity in mouse assessed as change in body weight treated for 14 days. The settings on record: in vivo, 336 h, time 14 day.
Data set [17] relates to Human immunodeficiency virus 1. The data set is described as follows: Antiviral activity against HIV-1 harboring RT Y181C mutant infected in human MT4 cells assessed as protection against virus-induced cytopathic effect incubated for 5 days by MTT assay. Type of data set: functional, organism-based. The settings on record: Human immunodeficiency virus 1, MT4, 120 h.
Data set [18] in a line: Acute toxicity in mouse assessed as animal death treated for 14 days. As to conditions: in vivo, 336 h, time 14 day.
Data set [19] is described as follows: Acute toxicity in mouse assessed as toxic symptoms treated for 14 days. The settings on record: in vivo, 336 h, time 14 day.
The nature of data set [20]: Acute toxicity in mouse assessed as apparent pathological damage in heart treated for 14 days by H and E staining based analysis. Type of data set: tissue-based. As to conditions: in vivo, 336 h, time 14 day.
Data set [21] relates to Human immunodeficiency virus 1. The data set is described as follows: Antiviral activity against HIV-1 harboring RT K103N mutant infected in human MT4 cells assessed as protection against virus-induced cytopathic effect incubated for 5 days by MTT assay. Type of data set: functional, organism-based. The settings on record: Human immunodeficiency virus 1, MT4, 120 h.
The subject of data set [22] is Human immunodeficiency virus 1. The data set is described as follows: Antiviral activity against wild-type HIV-1 IIIB infected in human MT4 cells assessed as protection against virus-induced cytopathic effect incubated for 5 days by MTT assay. The format is functional, organism-based. The settings on record: Human immunodeficiency virus 1, IIIB, MT4, 120 h.
The next data set concerns the target Cytochrome P450 2C9 (Homo sapiens, UniProt P11712). Description: Inhibition of CYP2C9 (unknown origin). The format is ADME.
A short description of data set [23]: Solubility of compound in phosphate buffer at pH 7.4 by HPLC analysis. The format is physicochemical.
A short description of data set [24]: Solubility of compound in water by HPLC analysis. Type of data set: physicochemical.
A further data set concerns the target Cytochrome P450 2D6 (Homo sapiens, UniProt P10635). The data set is described as follows: Inhibition of CYP2D6 (unknown origin). The format is ADME.
A short description of data set [25]: Selectivity index, ratio of CC50 for human MT4 cells to EC50 for wild-type HIV-1 IIIB infected in human MT4 cells. As to conditions: read-out: Ratio CC50/EC50. The format is toxicity, cell-based.
The nature of data set [26]: Acute toxicity in mouse assessed as apparent pathological damage in spleen treated for 14 days by H and E staining based analysis. The format is tissue-based. The settings on record: in vivo, 336 h, time 14 day.
The target in another data set is Cytochrome P450 2C19 (Homo sapiens, UniProt P33261). The data set is described as follows: Inhibition of CYP2C19 (unknown origin). The format is ADME.
Sequence of Cytochrome P450 2C19 (P33261 whole entry): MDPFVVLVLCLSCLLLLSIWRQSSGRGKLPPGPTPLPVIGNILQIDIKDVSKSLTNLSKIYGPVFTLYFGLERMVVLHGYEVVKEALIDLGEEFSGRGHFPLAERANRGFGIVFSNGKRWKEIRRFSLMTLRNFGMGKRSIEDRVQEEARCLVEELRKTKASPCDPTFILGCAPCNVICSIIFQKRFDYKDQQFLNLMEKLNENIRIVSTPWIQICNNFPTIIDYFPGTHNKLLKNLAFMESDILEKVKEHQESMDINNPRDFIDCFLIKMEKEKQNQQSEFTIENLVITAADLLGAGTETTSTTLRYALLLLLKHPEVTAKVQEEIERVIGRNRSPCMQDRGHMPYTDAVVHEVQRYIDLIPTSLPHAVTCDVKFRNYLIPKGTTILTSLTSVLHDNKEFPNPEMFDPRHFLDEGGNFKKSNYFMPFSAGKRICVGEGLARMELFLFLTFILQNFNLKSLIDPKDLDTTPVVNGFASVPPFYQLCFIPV
For data set [27], the target named is T1, Cytochrome P450 3A4. Description: Inhibition of CYP3A4 (unknown origin). Type of data set: ADME.

Converted amounts (≈) assume the structure as drawn.

Sequence of Cytochrome P450 2D6 (P10635 whole entry): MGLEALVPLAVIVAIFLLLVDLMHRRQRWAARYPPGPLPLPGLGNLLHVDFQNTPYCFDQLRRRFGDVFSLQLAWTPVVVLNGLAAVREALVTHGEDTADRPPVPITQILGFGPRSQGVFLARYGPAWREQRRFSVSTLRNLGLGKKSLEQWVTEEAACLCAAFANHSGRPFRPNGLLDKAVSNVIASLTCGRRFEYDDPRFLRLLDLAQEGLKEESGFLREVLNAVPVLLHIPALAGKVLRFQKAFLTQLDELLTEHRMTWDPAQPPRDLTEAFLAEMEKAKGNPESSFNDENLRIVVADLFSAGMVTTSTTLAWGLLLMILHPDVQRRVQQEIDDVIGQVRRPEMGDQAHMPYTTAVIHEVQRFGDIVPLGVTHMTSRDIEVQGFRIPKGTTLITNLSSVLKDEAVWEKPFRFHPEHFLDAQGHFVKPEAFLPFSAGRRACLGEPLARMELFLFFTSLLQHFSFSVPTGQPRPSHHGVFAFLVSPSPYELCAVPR
Sequence of Voltage-gated inwardly rectifying potassium channel KCNH2 (Q12809 whole entry): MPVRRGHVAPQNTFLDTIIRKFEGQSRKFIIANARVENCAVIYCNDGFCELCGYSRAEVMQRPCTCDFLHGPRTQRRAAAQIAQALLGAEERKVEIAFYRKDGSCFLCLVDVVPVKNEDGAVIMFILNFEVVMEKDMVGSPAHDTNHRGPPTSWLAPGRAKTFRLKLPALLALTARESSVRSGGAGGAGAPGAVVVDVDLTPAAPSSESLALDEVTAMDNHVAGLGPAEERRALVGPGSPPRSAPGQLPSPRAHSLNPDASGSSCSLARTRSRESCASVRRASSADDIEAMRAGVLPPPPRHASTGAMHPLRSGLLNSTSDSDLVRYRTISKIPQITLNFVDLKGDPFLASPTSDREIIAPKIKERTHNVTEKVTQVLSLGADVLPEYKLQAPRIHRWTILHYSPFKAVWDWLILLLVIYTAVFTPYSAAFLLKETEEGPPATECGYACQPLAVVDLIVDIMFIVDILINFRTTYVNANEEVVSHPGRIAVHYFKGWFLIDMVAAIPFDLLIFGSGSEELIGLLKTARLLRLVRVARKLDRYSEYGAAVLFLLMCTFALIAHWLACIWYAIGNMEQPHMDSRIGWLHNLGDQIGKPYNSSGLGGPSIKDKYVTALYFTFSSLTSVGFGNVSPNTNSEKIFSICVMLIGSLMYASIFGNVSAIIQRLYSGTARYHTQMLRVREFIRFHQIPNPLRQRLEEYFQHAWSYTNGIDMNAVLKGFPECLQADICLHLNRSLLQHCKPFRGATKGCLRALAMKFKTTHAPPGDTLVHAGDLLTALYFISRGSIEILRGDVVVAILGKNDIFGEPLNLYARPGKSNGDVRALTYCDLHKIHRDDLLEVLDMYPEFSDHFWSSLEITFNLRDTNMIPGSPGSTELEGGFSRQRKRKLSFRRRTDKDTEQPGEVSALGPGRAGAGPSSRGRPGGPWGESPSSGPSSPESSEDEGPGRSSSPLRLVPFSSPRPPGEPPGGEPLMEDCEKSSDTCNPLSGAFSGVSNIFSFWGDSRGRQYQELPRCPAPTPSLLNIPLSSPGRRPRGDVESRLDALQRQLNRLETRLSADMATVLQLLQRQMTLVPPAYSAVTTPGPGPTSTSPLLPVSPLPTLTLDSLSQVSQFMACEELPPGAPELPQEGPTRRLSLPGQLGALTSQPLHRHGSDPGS
Sequence of Cytochrome P450 2C9 (P11712 whole entry): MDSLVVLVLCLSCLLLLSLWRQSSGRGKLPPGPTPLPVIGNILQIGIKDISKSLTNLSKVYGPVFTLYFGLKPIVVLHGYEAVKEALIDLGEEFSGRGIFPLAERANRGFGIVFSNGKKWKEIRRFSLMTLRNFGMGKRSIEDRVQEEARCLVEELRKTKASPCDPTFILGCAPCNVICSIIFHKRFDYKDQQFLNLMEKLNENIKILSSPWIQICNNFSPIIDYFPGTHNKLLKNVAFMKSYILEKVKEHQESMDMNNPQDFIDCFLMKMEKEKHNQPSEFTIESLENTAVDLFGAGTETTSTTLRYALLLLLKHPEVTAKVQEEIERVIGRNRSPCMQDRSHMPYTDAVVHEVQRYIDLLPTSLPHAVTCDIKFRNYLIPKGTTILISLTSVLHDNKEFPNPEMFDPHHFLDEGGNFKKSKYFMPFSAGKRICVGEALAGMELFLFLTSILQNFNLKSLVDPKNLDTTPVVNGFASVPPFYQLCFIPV

Regarding `CCOC(=O)c1cnc(NC2CCN(Cc3ccc(C(=O)NC)cc3)CC2)nc1Oc1c(C)cc(-c2ccc(C#N)cc2)cc1C`, the half-inhibitory concentration (IC50) in [1] is 25.9 µM; on Cytochrome P450 3A4 [3], above 50 µM; on Cytochrome P450 3A4 [7] it was above 50 µM; at Cytochrome P450 1A2, above 50 µM; in data set [8], 713 nM; on Cytochrome P450 2C9, above 50 µM. For the same molecule, the results for the IC50 against Cytochrome P450 2D6 and against Cytochrome P450 2C19 were above 50000 nM and above 50 µM, respectively. Besides, the Activity result in data set [2], in data set [4], in data set [9], in data set [10], in data set [12] and in data set [16] was “Non-Toxic” throughout. Further, the Activity entry in data set [18], in data set [19], in data set [20] and in [26] was “Non-Toxic” each time. Also, the EC50 was found to be 29 nM in [5]; 63 nM in [13]; 47 nM in data set [15]; 38 nM in data set [17]; 7 nM in data set [21]; 6 nM in data set [22]. Further, the cytotoxic concentration (CC50) at 120 h in [6] is above 202 µM. For the same molecule, the solubility was below 1 µg/mL in data set [11], 109 µg/mL (≈ 177 µM) in [14], below 1 µg/mL in data set [23] and below 1 µg/mL in [24]. Besides, in data set [25], the selectivity ratio is above 33100.
`Cc1cc(C#N)cc(C)c1Oc1nc(Nc2ccc(C#N)cc2)nc(N)c1Br` [ETRAVIRINE]: the CC50 at 120 h in data set [6] was above 4.61 µM. Besides, the solubility in data set [11] and in data set [23] was below 1 µg/mL each time. The EC50 in [13] was determined as 24 nM; in data set [15] it was 13 nM.
For the molecule `Cc1cc(/C=C/C#N)cc(C)c1Nc1ccnc(Nc2ccc(C#N)cc2)n1` [RILPIVIRINE], the IC50 in data set [8] came to 35 nM. For the same molecule, the solubility in [11] and in data set [23] was below 1 µg/mL each time.
Turning to `CCOC(=O)c1cnc(NC2CCN(Cc3ccc(C(=O)NC)cc3)CC2)nc1Nc1c(C)cc(-c2ccc(C#N)cc2)cc1C.O=S(=O)(O)O`, the solubility in data set [11] is below 1 µg/mL; in data set [14], 147 µg/mL; in [23] it was below 1 µg/mL; in data set [24] it was 134 µg/mL.
Turning to `COc1ccc2c(c1)[C@]13CCCC[C@@H]1[C@H](C2)N(C)CC3` [DEXTROMETHORPHAN], the concentration for half-maximal inhibition (IC50) against Cytochrome P450 2D6 is 242 nM.
In turn, `C[C@]12CC[C@H]3[C@@H](CCC4=CC(=O)CC[C@@]43C)[C@@H]1CC[C@@H]2O` [TESTOSTERONE] returned a concentration for half-maximal inhibition (IC50) against Cytochrome P450 3A4 [27] of 37 nM.
Regarding `CCOC(=O)c1cnc(NC2CCN(Cc3ccc(C(=O)NC)cc3)CC2)nc1Oc1c(C)cc(-c2ccc(C#N)cc2)cc1C.Cl`, the solubility in data set [11] was below 1 µg/mL; in [14], 103 µg/mL; in [23], below 1 µg/mL; in data set [24], 336 µg/mL.
On to `Br.CCOC(=O)c1cnc(NC2CCN(Cc3ccc(C(=O)NC)cc3)CC2)nc1Nc1c(C)cc(-c2ccc(C#N)cc2)cc1C`, for which the solubility was below 1 µg/mL in [11], 141 µg/mL in [14], below 1 µg/mL in data set [23] and 91.4 µg/mL in data set [24].
For `CCOC(=O)c1cnc(NC2CCN(Cc3cccnc3)CC2)nc1Oc1c(C)cc(-c2ccc(C#N)cc2)cc1C`, the EC50 in [5] was 272 nM; in data set [13], 431 nM; in data set [15], 70 nM; in data set [17] it was 99 nM; in [21], 53 nM; in data set [22] it was 35 nM. Further, the half-maximal cytotoxic concentration (CC50) at 120 h in data set [6] was above 222 µM. Also, the IC50 in data set [8] worked out at 718 nM. Further, the selectivity ratio in data set [25] was above 6430.
Take `CCOC(=O)c1cnc(NC2CCN(Cc3ccc(C(=O)NC)cc3)CC2)nc1Nc1c(C)cc(-c2ccc(C#N)cc2)cc1C.O=P(O)(O)O`: the solubility in data set [11] was below 1 µg/mL; in [14], 136 µg/mL; in data set [23] it was below 1 µg/mL; in [24] it was 77.2 µg/mL.
Turning to `CCOC(=O)c1cnc(NC2CCN(Cc3ccc(F)cc3)CC2)nc1Oc1c(C)cc(-c2ccc(C#N)cc2)cc1C`, the EC50 stood at 257 nM in [5]; 790 nM in data set [13]; 154 nM in data set [15]; 158 nM in data set [17]; 115 nM in data set [21]; 44 nM in data set [22]. Besides, the CC50 at 120 h in data set [6] was 185 µM. In addition, in data set [8], the half-maximal inhibitory concentration (IC50) was 582 nM. In addition, the selectivity ratio in data set [25] is 4180.

Values taken from ChEMBL document CHEMBL5608191, “Structure-based discovery of novel piperidine-biphenyl-DAPY derivatives as non-nucleoside reverse transcriptase inhibitors featuring improved potency, safety, and selectivity: From piperazine-biphenyl-DAPYs to piperidine-biphenyl-DAPYs” (Eur J Med Chem, 2024).
